Measured values: the NIST ThermoML archive (doi:10.1016/j.fluid.2007.10.011)
Numbers after ± are expanded uncertainties.

Tests used:
[1] = refractive index (Na D-line) (dimensionless); conditions: 298.2 K; 101.33 kPa; Liquid; Standard Abbe refractometry
[2] = 298.2 K; 101.33 kPa; Liquid; Pycnometric method

Compound: CCCCn1cc[n+](C)c1.COCCOCCOS(=O)(=O)[O-] [1-butyl-3-methylimidazolium 2-(2-methoxyethoxy)ethyl sulfate]
- refractive index [1]: 1.48 ± 0.001
- mass density [2]: 1170 ± 10 kg/m3

Compound: CCCCn1cc[n+](C)c1.F[P-](F)(F)(F)(F)F [1-butyl-3-methylimidazolium hexafluorophosphate]
- refractive index [1]: 1.41 ± 0.001
- mass density [2]: 1380 ± 10 kg/m3

Compound: CCCCn1cc[n+](C)c1.F[B-](F)(F)F [1-butyl-3-methylimidazolium tetrafluoroborate]
- refractive index [1]: 1.422 ± 0.001
- mass density [2]: 1200 ± 10 kg/m3

Compound: CCn1cc[n+](C)c1.Cc1ccc(S(=O)(=O)[O-])cc1 [1-ethyl-3-methylimidazolium 4-methylbenzenesulfonate]
- refractive index [1]: 1.538 ± 0.001
- mass density [2]: 1210 ± 10 kg/m3

Compound: CC(O)c1ccccc1 (stereo unspecified) [1-phenylethanol]
- refractive index [1]: 1.5225 ± 0.0008
- mass density [2]: 1010 ± 2 kg/m3

Compound: CCC(=O)OC(C)c1ccccc1 (stereo unspecified) [1-phenylethyl propionate]
- refractive index [1]: 1.4865 ± 0.0008
- mass density [2]: 1007 ± 2 kg/m3

Compound: CCC(=O)O [propanoic acid]
- refractive index [1]: 1.382 ± 0.001
- mass density [2]: 992 ± 1 kg/m3

Compound: C=COC(=O)CC [vinyl propanoate]
- refractive index [1]: 1.402 ± 0.001
- mass density [2]: 919 ± 2 kg/m3
